Data as given in the SangsterLogP compilation.

**Q.** Which logP does the source give for O=[N+]([O-])c1ccc(Oc2ccc(Cl)cc2Cl)cc1 here?
**A.** Its logP is 4.64.

**Q.** Which logP does the source give for C#CCOc1cc(OC(=O)N2CCC(F)(F)CC2)c(Cl)cc1Cl here?
**A.** Its logP is 3.57.

**Q.** Which logP does the source give for COC(=O)c1cc(Oc2cc(C(F)(F)F)ccc2Cl)ccc1[N+](=O)[O-] here?
**A.** The logP was 4.21.

**Q.** For O=C(Oc1ccc(Cl)cc1Cl)N1CCCC1, which logP is on record?
**A.** Its logP is 3.94.

**Q.** For O=[N+]([O-])c1ccc(Oc2ccc(C(F)(F)F)cc2Cl)cc1, which logP is on record?
**A.** The logP was 4.54.

**Q.** Which logP does the source give for C#CCOc1cc(OC(=O)N2CCCC2)c(Cl)cc1Cl here?
**A.** The logP was 3.82.

**Q.** With O=C(Oc1cc(O)c(Cl)cc1Cl)N1CCCC1 as the molecule, how does the logP read?
**A.** Its logP is 2.98.

**Q.** With O=[N+]([O-])c1ccc(Oc2ccc(C(F)(F)F)cc2Cl)cc1Oc1ccoc1 as the molecule, how does the logP read?
**A.** The logP was 4.33.

**Q.** For Nc1c([N+](=O)[O-])ccc(Oc2ccccc2)c1Cl, which logP is on record?
**A.** Its logP is 4.04.

**Q.** Which logP does the source give for O=C(Oc1ccc(Cl)cc1)N1CCCC1 here?
**A.** The logP was 3.38.

**Q.** For O=C(Oc1ccccc1Cl)N1CCCC1, which logP is on record?
**A.** The logP was 3.13.

**Q.** For O=C(O)COC(=O)c1cc(Oc2ccc(C(F)(F)F)cc2Cl)ccc1[N+](=O)[O-], which logP is on record?
**A.** The logP was 4.27.

**Q.** For COC(=O)c1cc(Oc2ccc(C(F)(F)F)cc2Cl)ccc1Cl, which logP is on record?
**A.** The logP was 5.04.

**Q.** With CC(C)OC(=O)c1cc(OC(=O)N2CCCC2)c(F)cc1Cl as the molecule, how does the logP read?
**A.** Its logP is 4.2.

**Q.** For CCOC(=O)C(C)OC(=O)c1cc(Oc2ccc(C(F)(F)F)cc2Cl)ccc1[N+](=O)[O-] (stereo not drawn), which logP is on record?
**A.** Its logP is 4.81.

**Q.** For COC(=O)c1cc(OC(=O)N2CCCC2)c(Cl)cc1Cl, which logP is on record?
**A.** The logP was 3.95.

**Q.** For Cc1cccc(Oc2ccc([N+](=O)[O-])cc2)c1, which logP is on record?
**A.** Its logP is 4.4.

**Q.** Which logP does the source give for C#CCOc1cc(OC(=O)N2CCC(F)(F)C2)c(Cl)cc1Cl here?
**A.** Its logP is 3.42.

**Q.** With C#CCOc1cc(OC(=O)N2CCCCC2)c(Cl)cc1Cl as the molecule, how does the logP read?
**A.** The logP was 4.25.

**Q.** Which logP does the source give for C#CCOc1cc(OC(=O)N(CC)CC)c(Cl)cc1Cl here?
**A.** Its logP is 3.95.

**Q.** With COC(=O)c1cc(S(=O)c2ccc(C(F)(F)F)cc2Cl)ccc1[N+](=O)[O-] (stereo not drawn) as the molecule, how does the logP read?
**A.** The logP was 3.65.

**Q.** Which logP does the source give for COC(=O)c1cc(Oc2ccc(C(F)(F)F)cc2Cl)ccc1[N+](=O)[O-] here?
**A.** Its logP is 4.26.

**Q.** With COC(=O)CC(C)(N=O)c1cc(Oc2ccc(C(F)(F)F)cc2Cl)ccc1[N+](=O)[O-] (stereo not drawn) as the molecule, how does the logP read?
**A.** Its logP is 4.54.

**Q.** Which logP does the source give for O=C(Oc1ccccc1)N1CCCC1 here?
**A.** The logP was 2.73.

**Q.** For CC(C)OC(=O)c1cc(OC(=O)N2CCCC2)c(Cl)cc1Cl, which logP is on record?
**A.** Its logP is 4.67.

**Q.** With C#CCOC1=Nc2ccc(OC(=O)N3CCCC3)cc2OC1 as the molecule, how does the logP read?
**A.** The logP was 2.93.

**Q.** For COC(=O)c1cc(S(=O)(=O)c2ccc(C(F)(F)F)cc2Cl)ccc1[N+](=O)[O-], which logP is on record?
**A.** The logP was 3.57.

**Q.** Which logP does the source give for C=COC(=O)[C@@H](C)Oc1cc(Oc2ccc(C(F)(F)F)cc2Cl)ccc1[N+](=O)[O-] here?
**A.** The logP was 4.54.
